Measurements: US20090093423A2, “NOVEL 2-SUBSTITUTED METHYL PENAM DERIVATIVES” (Orchid Chemicals and Pharmaceuticals Limited, priority 2006, published 2009)

What was measured:
A. baumanii 14501 = assay: MIC, Agar Dilution Method; type: cell-based; details: inhibitor 1 μg/mL
Procedure: (§1) The novel compounds were tested for the in vitro antibacterial activities by the Agar Dilution Method as specified in documents published by NCCLS, now CLSI, USA. (National Committee for Clinical Laboratory Standards (NCCLS). 2003. Approved standard M7-A6. NCCLS, Villanova, Pa.).
(§2) Tazo was also dissolved in same buffer to get a solution of, e.g., 1 mg/mL. Novel penam derivatives described herein were dissolved in water to get a solution of, e.g., 1 mg/mL.
(§3) The novel compounds and Tazo were also tested individually. The bacterial inoculum was prepared by picking 3 to 5 well-isolated bacterial colonies with the same morphological appearance from an 18-24 h old culture and adjusting the turbidity of the saline suspension to 0.5 McFarland Turbidity Standard equivalent to a bacterial population of 1.5×10^8 colony forming units (CFU) per mL of suspension. The suspension was diluted 1:10 in saline (i.e. 0.5 mL suspension+4.5 mL saline) to get a bacterial population of 1.5×10^7 CFU/mL as inoculum. […] The inoculated petridishes were incubated at 35° C. in an ambient atmosphere for 16-20 h.

C. freundii 12301 = assay: MIC, Agar Dilution Method; type: cell-based; details: inhibitor 1 μg/mL
Procedure: as §1, §2, §3

C. sedlakii 12303 = assay: MIC, Agar Dilution Method; type: cell-based; details: inhibitor 1 μg/mL
Procedure: as §1, §2, §3

E. cloacae 11802 = assay: MIC, Agar Dilution Method; type: cell-based; details: inhibitor 1 μg/mL
Procedure: as §1, §2, §3

E. coli 10003 = assay: MIC, Agar Dilution Method; type: cell-based; details: inhibitor 1 μg/mL
Procedure: as §1, §2, §3

E. coli 10004 = assay: MIC, Agar Dilution Method; type: cell-based; details: inhibitor 1 μg/mL
Procedure: as §1, §2, §3

E. coli MRO 10002 = assay: MIC, Agar Dilution Method; type: cell-based; details: strain 10002 (uncharacterized-ESBL clinical strain); inhibitor 1 μg/mL
Procedure: as §1, §2, §3

E. coli MRO 10007 = assay: MIC, Agar Dilution Method; type: cell-based; details: strain 10007 (uncharacterized-ESBL clinical strain); inhibitor 1 μg/mL
Procedure: as §1, §2, §3

K. pneumoniae 11009 = assay: MIC, Agar Dilution Method; type: cell-based; details: strain 11009 (uncharacterized-ESBL clinical strain); inhibitor 1 μg/mL
Procedure: as §1, §2, §3

K. pneumoniae 11010 = assay: MIC, Agar Dilution Method; type: cell-based; details: inhibitor 1 μg/mL
Procedure: as §1, §2, §3

K. pneumoniae 11012 = assay: MIC, Agar Dilution Method; type: cell-based; details: inhibitor 1 μg/mL
Procedure: as §1, §2, §3

K. pneumoniae MRO 11008 = assay: MIC, Agar Dilution Method; type: cell-based; details: strain 11008 (uncharacterized-ESBL clinical strain); inhibitor 1 μg/mL
Procedure: as §1, §2, §3

[1] = system: M. catarrhalis ATCC 43617; assay: MIC, Agar Dilution Method; type: cell-based; details: inhibitor 1 μg/mL
Procedure: as §1, §2, §3

P. aeruginosa 15019 = assay: MIC, Agar Dilution Method; type: cell-based; details: inhibitor 1 μg/mL
Procedure: as §1, §2, §3

P. aeruginosa 15020 = assay: MIC, Agar Dilution Method; type: cell-based; details: inhibitor 1 μg/mL
Procedure: as §1, §2, §3

P. aeruginosa ATCC 27853 = assay: MIC, Agar Dilution Method; type: cell-based; details: inhibitor 1 μg/mL
Procedure: as §1, §2, §3

A. baumani MRO 14512 = assay: MIC, Agar Dilution Method, resistant clinical isolate; type: cell-based; details: Pip + 4 μg/mL inhibitor
Procedure: as §1, §2, §3

A. baumani MRO 14514 = assay: as above; type: cell-based; details: Pip + 4 μg/mL inhibitor
Procedure: as §1, §2, §3

A. baumani MRO 14515 = assay: as above; type: cell-based; details: Pip + 4 μg/mL inhibitor
Procedure: as §1, §2, §3

E. coli MRO 10135 = assay: as above; type: cell-based; details: Pip + 4 μg/mL inhibitor
Procedure: as §1, §2, §3

[2] = Minimum bactericidal studies, broth macrodilution; type: cell-based
Procedure: Minimum bactericidal studies were performed by broth macrodilution technique as described by NCCLS.

[3] = system: ESBLs types SHV-3 and SHV-4; details: Bryson and Brogden, 1994; cited from earlier work

## C[C@]1(Cn2ccnn2)[C@H](C(=O)O)N2C(=O)C[C@H]2S1(=O)=O [Tazo]
A. baumanii 14501
  MIC of Piperacillin with Tazo or compounds described herein at 1 μg/mL: 8 µg/mL
C. freundii 12301
  MIC of Piperacillin with Tazo or compounds described herein at 1 μg/mL: 16 µg/mL
C. sedlakii 12303
  MIC of Piperacillin with Tazo or compounds described herein at 1 μg/mL: 1 µg/mL
E. cloacae 11802
  MIC of Piperacillin with Tazo or compounds described herein at 1 μg/mL: 64 µg/mL
E. coli 10003
  MIC of Piperacillin with Tazo or compounds described herein at 1 μg/mL: 32 µg/mL
E. coli 10004
  MIC of Piperacillin with Tazo or compounds described herein at 1 μg/mL: 16 µg/mL
E. coli MRO 10002
  MIC of Piperacillin with Tazo or compounds described herein at 1 μg/mL: 128 µg/mL
E. coli MRO 10007
  MIC of Piperacillin with Tazo or compounds described herein at 1 μg/mL: 1 µg/mL
K. pneumoniae 11009
  MIC of Piperacillin with Tazo or compounds described herein at 1 μg/mL: 16 µg/mL
K. pneumoniae 11010
  MIC of Piperacillin with Tazo or compounds described herein at 1 μg/mL: 2 µg/mL
K. pneumoniae 11012
  MIC of Piperacillin with Tazo or compounds described herein at 1 μg/mL: 2 µg/mL
K. pneumoniae MRO 11008
  MIC of Piperacillin with Tazo or compounds described herein at 1 μg/mL: >128 µg/mL
[1]
  MIC of Piperacillin with Tazo or compounds described herein at 1 μg/mL: <0.25 µg/mL
P. aeruginosa 15019
  MIC of Piperacillin with Tazo or compounds described herein at 1 μg/mL: 32 µg/mL
P. aeruginosa 15020
  MIC of Piperacillin with Tazo or compounds described herein at 1 μg/mL: 64 µg/mL
P. aeruginosa ATCC 27853
  MIC of Piperacillin with Tazo or compounds described herein at 1 μg/mL: 4 µg/mL
A. baumani MRO 14512
  MIC of Piperacillin in combination with 4 μg/mL inhibitor: 64 µg/mL
A. baumani MRO 14514
  MIC of Piperacillin in combination with 4 μg/mL inhibitor: 64 µg/mL
A. baumani MRO 14515
  MIC of Piperacillin in combination with 4 μg/mL inhibitor: 128 µg/mL
E. coli MRO 10135
  MIC of Piperacillin in combination with 4 μg/mL inhibitor: >128 µg/mL
[2]
  Minimum bactericidal concentration study, Piperacillin in combination with inhibitor: bacteriostatic
[3]
  activity against ESBLs types SHV-3 and SHV-4: inactive
